Reference: patent US20220401514A1, “ANTIMICROBIAL, BACTERIOPHAGE-DERIVED POLYPEPTIDES AND THEIR USE AGAINST GRAM-NEGATIVE AND ACID-FAST BACTERIA” (CONTRAFECT CORPORATION, priority 2019, published 2022)

Key:
[1] = tested on: mature biofilms formed by P. aeruginosa strain ATCC 17647; experiment: Minimal Biofilm Eradicating Concentration (MBEC), Calgary Biofilm Device, crystal violet; assay type: cell-based, Pseudomonas aeruginosa
Procedure: Biofilms are then washed and treated with e.g., a 2-fold dilution series of the lysin in TSBg at e.g., 37° C. for 24 hours. After treatment, wells are washed, air-dried at e.g., 37° C. and stained with e.g., 0.05% crystal violet for 10 minutes.
Determination of Minimal Biofilm Eradicating Concentrations (MBEC). […] Biofilms were washed and treated with a 2-fold dilution series of each peptide in TSBg at 37° C. for 16 hours. […] The OD600 of extracted crystal violet was determined.

[2] = tested on: Klebsiella pneumoniae strain 1139; experiment: Checkerboard assay (FICI) with antibiotics, K. pneumoniae; assay type: cell-based
Method in brief: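 Antibiotics in 2-fold dilutions across one axis against Chp peptide dilutions on the other. FICI = MIC in combination/MIC alone for antibiotic plus the same ratio for peptide; minimum FICI used. Synergy at FICI ≤0.5, strongly additive >0.5 to <1, additive 1-<2, antagonistic ≥2.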

[3] = tested on: Acinetobacter baumannii strain 30; experiment: Checkerboard assay (FICI) with antibiotics, A. baumannii; assay type: cell-based; set-up: key to FIC Index: FICI = FIC A + FIC B; ≤0.5 synergy, ≥2 antagonism; conditions: for Chp peptide FIC / Chp peptide MIC: checkerboard
[4] = tested on: P. aeruginosa strain CFS-1292; experiment: Time-kill assay in CAA with 2.5% human serum; assay type: cell-based, Pseudomonas aeruginosa; conditions: for Loss of bacterial viability: CAA with […] human serum, vs untreated controls
Procedure: Time-Kill Assay of Chp Peptide Activity. […] Exponential phase bacteria were then diluted 1:100 into CAA/HuS and peptide was added at a final concentration of either 1 or 10 μg/mL. Control cultures were included with no peptide added (i.e., buffer control).

[5] = tested on: P. aeruginosa strain CFS-1292; assay type: cell-based, Pseudomonas aeruginosa
[6] = tested on: P. aeruginosa (CFS 1292); experiment: microbe, parasite or virus in culture; assay type: cell-based, Pseudomonas aeruginosa
[7] = tested on: carbapenamase-producing Enterobacteriaceae isolates; experiment: MIC against CDC Carbapenamase Enterobacteriaceae panel (n = 53); assay type: cell-based
Description: Additionally, a third panel of 53 carbapenamase-producing Enterobacteriaceae isolates were selected to represent a diversity of species and carbapenemases. See wwwn.cdc.gov/ARIsolateBank/Panel/PanelDetail?ID=8.

[8] = in combination with Azithromycin
[9] = in combination with Ciprofloxacin
[10] = in combination with Levofloxacin
[11] = in combination with Piperacillin
[12] = Carbapenamase Enterobacteriaceae panel

Q: Which results are given for “MRLKMARRRYRLPRRRSRRLFSRTALRMHPRNRLRRIMRGGIRF [Chp2]”?
A: MBEC ([1]; MBEC assay format, summary statement, strain not stated there): 0.25 µg/mL; MBEC ([1]; P. aeruginosa ATCC 17647 mature biofilm, tryptic soy broth with 2% glucose): 0.25 µg/mL; FIC Index ([2]; Chp peptide combined with Azithromycin): 0.25; FIC Index ([2]; Chp peptide combined with Aztreonam): 0.563; FIC Index ([2]; Chp peptide combined with Colistin): 0.625; FIC Index ([2]; Chp peptide combined with Imipenem): 0.5; FIC Index ([2]; Chp peptide combined with Levofloxacin): 0.5; FIC Index ([2]; Chp peptide combined with Meropenem): 0.313; FIC Index ([2]; Chp peptide combined with Tobramycin): 0.5; Chp peptide FIC ([2]; combined with Azithromycin): 0.125; Chp peptide MIC in checkerboard ([2]; combined with Azithromycin): 0.0625 µg/mL; Chp peptide FIC ([2]; combined with Aztreonam): 0.0625; Chp peptide MIC in checkerboard ([2]; combined with Aztreonam): 0.3125 µg/mL; Chp peptide FIC ([2]; combined with Colistin): 0.5; Chp peptide MIC in checkerboard ([2]; combined with Colistin): 0.25 µg/mL; Chp peptide FIC ([2]; combined with Imipenem): 0.25; Chp peptide MIC in checkerboard ([2]; combined with Imipenem): 0.125 µg/mL; Chp peptide FIC ([2]; combined with Levofloxacin): 0.25; Chp peptide MIC in checkerboard ([2]; combined with Levofloxacin): 0.0625 µg/mL; Chp peptide FIC ([2]; combined with Meropenem): 0.0625; Chp peptide MIC in checkerboard ([2]; combined with Meropenem): 0.0625 µg/mL; Chp peptide FIC ([2]; combined with Tobramycin): 0.25; Chp peptide MIC in checkerboard ([2]; combined with Tobramycin): 0.125 µg/mL; FIC Index ([3]; Chp peptide + Amikacin): 0.281; FIC Index ([3]; Chp peptide + Azithromycin): 0.563; FIC Index ([3]; Chp peptide + Aztreonam): 0.313; FIC Index ([3]; Chp peptide + Ciprofloxacin): 0.531; FIC Index ([3]; Chp peptide + Colistin): 0.375; FIC Index ([3]; Chp peptide + Gentamicin): 0.313; FIC Index ([3]; Chp peptide + Imipenem): 0.531; FIC Index ([3]; Chp peptide + Levofloxacin): 0.5; FIC Index ([3]; Chp peptide + Meropenem): 0.375; FIC Index ([3]; Chp peptide + Piperacillin): 0.375; FIC Index ([3]; Chp peptide + Tobramycin): 0.188; Chp peptide FIC ([3]; in combination with Amikacin): 0.03125; Chp peptide MIC ([3]; in combination with Amikacin): 0.03125 µg/mL; Chp peptide FIC [3, 8]: 0.0625; Chp peptide MIC [3, 8]: 0.03125 µg/mL; Chp peptide FIC ([3]; in combination with Aztreonam): 0.0625; Chp peptide MIC ([3]; in combination with Aztreonam): 0.0625 µg/mL; Chp peptide FIC [3, 9]: 0.5; Chp peptide MIC [3, 9]: 0.5 µg/mL; Chp peptide FIC ([3]; in combination with Colistin): 0.25; Chp peptide MIC ([3]; in combination with Colistin): 0.25 µg/mL; Chp peptide FIC ([3]; in combination with Gentamicin): 0.0625; Chp peptide MIC ([3]; in combination with Gentamicin): 0.0625 µg/mL; Chp peptide FIC ([3]; in combination with Imipenem): 0.03125; Chp peptide MIC ([3]; in combination with Imipenem): 0.01562 µg/mL; Chp peptide FIC [3, 10]: 0.25; Chp peptide MIC [3, 10]: 0.25 µg/mL; Chp peptide FIC ([3]; in combination with Meropenem): 0.125; Chp peptide MIC ([3]; in combination with Meropenem): 0.125 µg/mL; Chp peptide FIC [3, 11]: 0.125; Chp peptide MIC [3, 11]: 0.125 µg/mL; Chp peptide FIC ([3]; in combination with Tobramycin): 0.0625; Chp peptide MIC ([3]; in combination with Tobramycin): 0.0625 µg/mL; Loss of bacterial viability ([4]; 1 μg/mL, 1 hour): >3.5 log10 CFU/mL; Loss of bacterial viability ([4]; 1 μg/mL, 3 hours): >4 log10 CFU/mL; Loss of bacterial viability ([4]; 1 μg/mL, 24 hours): >4.8 log10 CFU/mL; Loss of bacterial viability ([4]; 10 μg/mL, 1 hour): >3.5 log10 CFU/mL; Loss of bacterial viability ([4]; 10 μg/mL, 3 hours): >4 log10 CFU/mL; Loss of bacterial viability ([4]; 10 μg/mL, 24 hours): >4.8 log10 CFU/mL; bacterial viability after treatment (time-kill) ([4]; 1, 3 and 24 hours, 1 μg/mL and 10 μg/mL, CAA + […] human serum): multi-log fold decreases; frequency (spontaneous resistance) ([5]; CAA media with agent at 4×MIC, resistant colonies after 48 hours / total CFUs): <1.25E−09; MIC ([5]; P. aeruginosa CFS-1292, MIC underlying the 4×MIC selection): 0.25 µg/mL; Passage MIC Passage #1 (Untreated) ([6]; Passage #1, MIC of agent on untreated culture): 0.25 µg/mL; Passage MIC Passage #1 ([6]; Passage #1, colonies from spot dilution, duplicates (1),(2)): 0.25 µg/mL; Passage MIC Passage #2 (Untreated) ([6]; Passage #2, MIC of agent on untreated culture): 0.25 µg/mL; Passage MIC Passage #2 ([6]; Passage #2, colonies from spot dilution, duplicates (1),(2)): 0.25 µg/mL; Passage MIC Passage #3 (Untreated) ([6]; Passage #3, MIC of agent on untreated culture): 0.25 µg/mL; Passage MIC Passage #3 ([6]; Passage #3, colonies from spot dilution, duplicates (1),(2)): 0.25 µg/mL; Passage MIC Passage #4 (Untreated) ([6]; Passage #4, MIC of agent on untreated culture): 0.25 µg/mL; Passage MIC Passage #4 ([6]; Passage #4, colonies from spot dilution, duplicates (1),(2)): 0.25 µg/mL; Passage MIC Passage #5 (Untreated) ([6]; Passage #5, MIC of agent on untreated culture): 0.25 µg/mL; Passage MIC Passage #5 ([6]; Passage #5, colonies from spot dilution, duplicates (1),(2)): 0.25 µg/mL; MIC Center ([6]; spot dilution assay, colonies from center of clearing zone): No growth; MIC Periphery ([6]; spot dilution assay, colonies from periphery of clearing zone): 0.25 µg/mL; MIC Untreated control ([6]; spot dilution assay, untreated control): 0.25 µg/mL; propensity towards resistance ([6]; spot dilution colonies, five passages total): no propensity towards resistance; MIC ([7]; Bank No. 0112, Klebsiella pneumoniae): 1 µg/mL; MIC ([7]; Bank No. 0113, Klebsiella pneumoniae): 1 µg/mL; MIC ([7]; Bank No. 0114, Escherichia coli): 0.5 µg/mL; MIC ([7]; Bank No. 0115, Klebsiella pneumoniae): 1 µg/mL; MIC ([7]; Bank No. 0116, Citrobacter freundii): 0.5 µg/mL; MIC ([7]; Bank No. 0117, Klebsiella pneumoniae): 0.5 µg/mL; MIC ([7]; Bank No. 0118, Escherichia coli): 0.5 µg/mL; MIC ([7]; Bank No. 0119, Escherichia coli): 0.5 µg/mL; MIC ([7]; Bank No. 0120, Klebsiella pneumoniae): 0.25 µg/mL; MIC ([7]; Bank No. 0121, Serratia marcescens): > 8 µg/mL; MIC ([7]; Bank No. 0122, Serratia marcescens): > 8 µg/mL; MIC ([7]; Bank No. 0123, Serratia marcescens): > 8 µg/mL; MIC ([7]; Bank No. 0124, Serratia marcescens): > 8 µg/mL; MIC ([7]; Bank No. 0125, Klebsiella pneumoniae): 1 µg/mL; MIC ([7]; Bank No. 0126, Klebsiella pneumoniae): 1 µg/mL; MIC ([7]; Bank No. 0127, Salmonella Senftenberg): 0.5 µg/mL; MIC ([7]; Bank No. 0128, Escherichia coli): 0.5 µg/mL; MIC ([7]; Bank No. 0129, Klebsiella pneumoniae): 1 µg/mL; MIC ([7]; Bank No. 0130, Serratia marcescens): > 8 µg/mL; MIC ([7]; Bank No. 0131, Serratia marcescens): > 8 µg/mL; MIC ([7]; Bank No. 0132, Enterobacter cloacae group): 1 µg/mL; MIC ([7]; Bank No. 0134, Raoultella ornithinolytica): 1 µg/mL; MIC ([7]; Bank No. 0135, Klebsiella pneumoniae): 0.5 µg/mL; MIC ([7]; Bank No. 0136, Enterobacter cloacae): 0.5 µg/mL; MIC ([7]; Bank No. 0137, Escherichia coli): 0.25 µg/mL; MIC ([7]; Bank No. 0138, Klebsiella pneumoniae): 0.5 µg/mL; MIC ([7]; Bank No. 0139, Klebsiella pneumoniae): 1 µg/mL; MIC ([7]; Bank No. 0140, Klebsiella pneumoniae): 0.5 µg/mL; MIC ([7]; Bank No. 0141, Klebsiella pneumoniae): 0.5 µg/mL; MIC ([7]; Bank No. 0142, Klebsiella pneumoniae): 0.5 µg/mL; MIC ([7]; Bank No. 0143, Klebsiella pneumoniae): 0.5 µg/mL; MIC ([7]; Bank No. 0144, Kluyvera ascorbata): 0.25 µg/mL; MIC ([7]; Bank No. 0145, Klebsiella pneumoniae): 1 µg/mL; MIC ([7]; Bank No. 0146, Klebsiella pneumoniae): 1 µg/mL; MIC ([7]; Bank No. 0147, Klebsiella oxytoca): 1 µg/mL; MIC ([7]; Bank No. 0148, Klebsiella pneumoniae): 1 µg/mL; MIC ([7]; Bank No. 0149, Escherichia coli): 0.5 µg/mL; MIC ([7]; Bank No. 0150, Escherichia coli): 0.25 µg/mL; MIC ([7]; Bank No. 0151, Escherichia coli): 0.25 µg/mL; MIC ([7]; Bank No. 0152, Klebsiella pneumoniae): 1 µg/mL; MIC ([7]; Bank No. 0153, Klebsiella pneumoniae): 0.5 µg/mL; MIC ([7]; Bank No. 0154, Enterobacter cloacae): 0.25 µg/mL; MIC ([7]; Bank No. 0155, Proteus mirabilis): 0.25 µg/mL; MIC ([7]; Bank No. 0156, Proteus mirabilis): 0.5 µg/mL; MIC ([7]; Bank No. 0157, Citrobacter freundii): 0.5 µg/mL; MIC ([7]; Bank No. 0158, Klebsiella pneumoniae): 0.5 µg/mL; MIC ([7]; Bank No. 0159, Proteus mirabilis): 0.25 µg/mL; MIC ([7]; Bank No. 0160, Klebsiella pneumoniae): 1 µg/mL; MIC ([7]; Bank No. 0161, Enterbacter aerogenes): 2 µg/mL; MIC ([7]; Bank No. 0162, Escherichia coli): 0.25 µg/mL; MIC ([7]; Bank No. 0163, Enterobacter cloacae): 0.25 µg/mL; MIC ([7]; Bank No. 0164, Enterobacter cloacae complex): 1 µg/mL; MIC50 [7, 12]: 0.5 µg/mL; MIC90 [7, 12]: 1 µg/mL
